Drawing on US20060167229A1, “Biologically active peptide conjugates” (priority 2002, published 2006), this text covers Hemolysis index and Stimulation index for eleven molecules.

Experiment [1] deals with Sheep red blood cells (SRBC). Nature of the experiment: Humoral immunity (SRBC hemolysis index) of mice bearing transplanted B16 melanoma. The format is in vivo, C57BL/6 mice. Also on record: key: index = (OD540 sample ÷ reference OD540) × 500. The following applies: saline 19.0 ± 9.1. As for the experimental part:
Intraperitoneal injection, once per day. […] Treatment of all groups with testing substance lasted for 30 days or until the animal died unless otherwise specified.
Stock B16 mouse melanoma cells were incubated in DMEM/F12 medium supplemented with 10% fetal bovine serum, 37° C./5% CO2 for 72 hrs, then washed 3-4 times with Hank's solution. The cell concentration was adjusted to 1×10^5 per ml with Hank's solution and 0.1 ml of the cell suspension was injected via the tail vein into the testing mice to generate the B16 melanoma bearing animal model. Treatment with test substance started as described in section Method 1.
Sheep red blood cells (SRBC) were prepared by collecting blood from the cervical vein and put into a sterile flask with glass beads. The flask was shaken for 3 minutes and the blood then mixed with Alsever solution (glucose 2.05 g, NaCl 0.4 g, […] 0.8 g, adjust to 100 ml with distilled water) and stored at 4° C. Immediately before use, samples were centrifuged at 130 g, 5 minutes to collect the SRBC. The cells were washed two times by re-suspension and centrifugation in normal saline. Then the cell pellet was collected by centrifugation at 180 g for 10 minutes and re-suspended in saline to make the final working SRBC suspension, 2% (v/v).
Complement was prepared by adding 10 volumes of fresh Cavy serum into one volume centrifuge packed SRBC, and then gently shaken for 30 minutes at 4° C. The SRBC was removed by centrifugation at 200 g for 10 minutes. 10 volumes of normal saline were added to obtain the working complement solution.
On the testing animals, on the 27th date of test substance treatment, 0.2 ml of the working SRBC cell suspension was injected into each animal to raise antibody. On the day after the last test substance administration, blood was collected from the eye canthus and left at room temperature for one hour for serum exudation. After centrifugation at 200 g for 10 minutes, the collected serum was diluted by 500 times with normal saline.
To 1 ml diluted mouse serum of each mouse, 0.5 ml SRBC suspension was added. Ice cold. Then 1 ml working complement solution was added and incubated at 37° C. water bath for 10 minutes. Reactions were terminated by ice cold. Samples were then centrifuged at 200 g for 10 minutes to obtain the supernatant.
To 1 ml of this supernatant, 3 ml Drabkin solution was added and left at room temperature for 10 minutes. OD540 nm was obtained.
Reference OD540 nm was obtained by mixing 0.25 ml SRBC suspension with Drabkin solution to 4 ml and placed at room temperature for 10 minutes before OD540 nm was taken. Hemolysis index=(OD540 nm of test sample÷reference OD540 nm)×500 6.2 After the Humoral Immunity Study, the Mice were Killed by Cervical Vertebra Dislocation. Postmortem Examination of the Animals was Performed. The Pathological Changes were Recorded, and the Numbers of Melanoma Lung Metastasis Foci Were Counted. Results

The subject of a further experiment is T lymphocyte. The experiment in a line: T lymphocyte transformation in mice with ascitic fluid type liver cancer H22. The format is in vivo, BALB/c mice. The following applies: saline 1.25 ± 0.07. As to the method: Healthy BALB/c mice were randomised into peptide group, rmIFN-γ group, rhIL-2 group, and saline group, 15 mice per group, and prepared into H22 carrying mice model as described in section Method 3. After implantation of the cancer cells, the test substances were administered for 15 days, the mice were killed by cervical dislocation. The spleen was isolated aseptically and manually dispersed in cold D-Hank's solution using an injection needle. The dispersed cell suspension was further sieved through a 100-gauge 150 μm diameter stainless steel sieve. After centrifugation at 200 g for 10 minutes, the supernatant was discarded. The cell pellet was re-suspended in 10 volume of Tris-NH4Cl buffer and then kept standing still for 10 minutes at room temperature. The suspended cells were collected by centrifugation at 150 g for 10 minutes. The cells were washed 2-4 times with cold D-Hank's solution by re-suspending and collecting by centrifugation with condition as described above. The washed cells were then diluted to the desired cell densities by RPMI-1640 culture medium, containing 10% fetal bovine serum.
Spleen cells of density 1×10^6/ml were placed onto a 96 wells cell culture plate, 100 μl/well, three parallel wells each of the assay sample and control sample per mouse. To the assay wells, 100 μl/well ConA of 100 μg/ml in RPMI-1640 was added, and 100 μl/well plain RPMI-1640 was used for the controls. The cells were incubated for 66 hrs at 37° C., 5% CO2. The cells were then pelleted by centrifugation at 150 g for 10 minutes.
50 μl/well MTT of 1 mg/ml in RPMI-1640 was added to the cell pellet and the cells re-suspended by shaking for 2 minutes. The incubation was continued for 4 hours. The supernatant was discarded after centrifugation at 150 g for 10 minutes. 120 μl 40 mM HCl-2-propanol was added to the cell pellet and shaken for 3 minutes. Use an ELISA reader to obtain OD570 nm of each well referenced at 630 nm.
Each mouse formed three assay wells and three control wells. The Stimulation Index (SI) of each mouse was obtained by first deriving the average OD of the three parallel wells, then dividing the value of the assay wells by the control wells.

[2] abbreviates: controls: rhIL-2, rmIFN-γ 3 × 10^5 IU/kg, cyclophosphamide 20 mg/kg.

Marks after values point to notes of the source that are not given here. Ends that are not written are not given here.

Regarding RVAPQQHPTL [CMS011], the values for the Hemolysis index in experiment [1] (dose 0.5 μg/kg) and in experiment [1] (dose 500 μg/kg) were 32.0 ± 14.7 and 34.4 ± 19.4, respectively.

With VGMGQKDSY, in the experiment on T lymphocyte (dose 0.5 μg/kg), the Stimulation index is recorded as 1.50 ± 0.19*^$. In addition, the Hemolysis index in experiment [1] (dose 0.5 μg/kg) is on record as 42.0 ± 12.0*^$; in experiment [1] (dose 5 μg/kg) it was 35.4 ± 15.1*^$; in experiment [1] (dose 50 μg/kg), 28.3 ± 7.6.

For the molecule “Tyr Ser Leu (YSL; listed as Sus scrofa) [CMS024]”, the results for the Stimulation index in the experiment on T lymphocyte (dose 0.5 μg/kg) and with T lymphocyte (dose 5 μg/kg) were 1.46 ± 0.19*^$ and 1.45 ± 0.21*^$, respectively. The Hemolysis index in experiment [1] (dose 0.5 μg/kg) is reported as 43.0 ± 10.7*^$; in experiment [1] (dose 5 μg/kg), 42.2 ± 11.8*^$; in experiment [1] (dose 50 μg/kg) it was 27.8 ± 9.1; in experiment [1] (dose 500 μg/kg) it was 30.1 ± 10.0.

Regarding PTTKTYFPHF [CMS001], the Hemolysis index in experiment [1] (dose 0.5 μg/kg) was 51.0 ± 16.2*^$; in experiment [1] (dose 5 μg/kg), 41.3 ± 17.7*^$; in experiment [1] (dose 50 μg/kg), 45.0 ± 31.9*^$; in experiment [1] (dose 500 μg/kg), 36.0 ± 10.2*^$.

IGMESAGIHETTY [CMS016] registered a Hemolysis index in experiment [1] (dose 500 μg/kg) of 43.3 ± 29.9.

As to “Pro Gln Asn Phe (PQNF; printed: Pro Gln Asn Phe) [CMS034]”, in the experiment with T lymphocyte (dose 0.5 μg/kg), the Stimulation index is given as 1.37 ± 0.10*^$. For the same molecule, the Hemolysis index in experiment [1] (dose 0.5 μg/kg) is recorded as 50.8 ± 18.4*^$; in experiment [1] (dose 5 μg/kg), 43.0 ± 11.7*^$; in experiment [1] (dose 50 μg/kg), 30.2 ± 10.9.

For FNFVPP [CMS003], the Hemolysis index in experiment [1] (dose 0.5 μg/kg) is 61.6 ± 26.9*^$; in experiment [1] (dose 5 μg/kg), 37.2 ± 15.9*^$; in experiment [1] (dose 50 μg/kg), 38.7 ± 13.5*^$; in experiment [1] (dose 500 μg/kg) it was 35.9 ± 13.0*^$.

Consider VAPEEHPTLLTEAPLNPK [CMS010], for which, in the experiment with T lymphocyte (dose 500 μg/kg), the Stimulation index is listed as 1.45 ± 0.21*^$. The Hemolysis index is 34.9 ± 10.5*^$ in experiment [1] (dose 0.5 μg/kg), 51.0 ± 14.6*^$ in experiment [1] (dose 5 μg/kg), 39.6 ± 7.7*^$ in experiment [1] (dose 50 μg/kg) and 50.1 ± 16.7*^$ in experiment [1] (dose 500 μg/kg).

Turning to “Phe Val Asn Asp (FVND; listed as Sus scrofa) [CMS035]”, the Stimulation index in the experiment with T lymphocyte (dose 0.5 μg/kg) was 1.40 ± 0.13*^$; with T lymphocyte (dose 5 μg/kg), 1.46 ± 0.16*^$. The Hemolysis index is given as 38.9 ± 21.2*^$ in experiment [1] (dose 5 μg/kg), 44.7 ± 22.7*^$ in experiment [1] (dose 50 μg/kg) and 40.5 ± 25.8 in experiment [1] (dose 500 μg/kg).

As to KAVGHLDDLPGAL [CMS008], the Hemolysis index in experiment [1] (dose 0.5 μg/kg) is given as 42.7 ± 18.4*^$; in experiment [1] (dose 5 μg/kg), 38.9 ± 12.0*^$; in experiment [1] (dose 50 μg/kg), 37.1 ± 16.7*^$; in experiment [1] (dose 500 μg/kg) it was 50.1 ± 17.8*^$.

B1: IFN-γ: recombinant mouse IFN-γ (rmIFN-γ), Beijing Biotech Inc.; positive control (protein, UniProt P01580 23-155, looked up)
Interferon gamma: HGTVIESLESLNNYFNSSGIDVEEKSLFLDIWRNWQKDGDMKILQSQIISFYLRLFEVLKDNQAISNNISVIESHLITTFFSNSKAKKDAFMSIAKFEVNNPQVQRQAFNELIRVVHQLLPESSLRKRKRSRC
Take B1: in the experiment with T lymphocyte (setting [2]), the Stimulation index is listed as 1.27 ± 0.14. Besides, the Hemolysis index in experiment [1] (setting [2]) was determined as 60.5 ± 17.4.
